Data as given in US8658646B2, “Pyrrolopyrazine kinase inhibitors” (Hoffmann-LaRoche Inc., priority 2011, dated 2014).

Key:
[1] = target: T1, JAK3: Recombinant human kinase domain (Homo sapiens, UniProt P52333); assay: Determination of IC50 of Janus Kinase (JAK) inhibition, radioactive end-point 33P-ATP assay, JAK3; type: biochemical; conditions: ATP 1.5 uM, peptide 50 uM, 20 minutes, read-out: JAK3-INHIB-DR/v1~NO ADDITIVE~Enzyme_Conc = 100
T1 construct: JAK3: Recombinant human kinase domain from Millipore (Cat #14-629) or prepared; purchased Millipore 14-629
T1 sequence (P52333 822-1111 limits assumed): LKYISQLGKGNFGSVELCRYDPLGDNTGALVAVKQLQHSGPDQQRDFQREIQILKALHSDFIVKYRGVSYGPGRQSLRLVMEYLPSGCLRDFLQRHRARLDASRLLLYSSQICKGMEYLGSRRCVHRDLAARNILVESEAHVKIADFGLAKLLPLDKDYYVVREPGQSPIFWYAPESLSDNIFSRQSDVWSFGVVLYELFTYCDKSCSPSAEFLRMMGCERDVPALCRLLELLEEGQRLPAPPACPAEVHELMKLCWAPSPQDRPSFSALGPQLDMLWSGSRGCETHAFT
Description: Determination of IC50 of Janus Kinase (JAK) Inhibition:
Assay conditions used are described below: • Assay Buffer: JAK Kinase Buffer: 50 mM Hepes [pH 7.2], 10 mM MgCl2, 1 mM DTT, 1 mg/ml BSA. The assay was carried out in this buffer. • Assay Format The kinase activity of all three JAK kinases was measured using a radioactive, end-point assay and with trace amounts of ^33P-ATP. The assays were carried out in 96-well polypropylene plates. Experimental Method:
All concentrations were final in the reaction mixture and all incubations were carried at room temperature. […] Final concentration of DMSO in the reaction was 10%. • 2) Compounds were preincubated with enzyme (0.5 nM JAK3 (commercially available), 0.2 nM JAK3 (prepared), 1 nM JAK2, 5 nM JAK1) for 10 minutes. • 3) Reactions were initiated by the addition of a cocktail of the two substrates (ATP and peptide premixed in the JAK Kinase Buffer). […] JAK1 assay was carried out at an ATP concentration of 10 uM and a peptide concentration of 50 uM. • 4) The duration of the assay for JAK2 and JAK3 is 20 minutes. JAK1 assay was carried out for 40 minutes. With all three enzymes, reactions were terminated by the addition of 0.5M EDTA to a final concentration of 100 mM. • 5) 25 ul of terminated reactions were transferred to 150 ul of a 7.5% (v/v) slurry of streptavidin-coated sepharose beads in MgCl2- and CaCl2-free 1× Phosphate Buffered Saline containing 50 mM of EDTA in 96-well, 1.2 um MultiScreen-BV filter plates. • 6) After a 30-minute incubation, the beads were washed under vacuum with the following buffers: • a. 3 to 4 washes with 200 ul of 2M NaCl. • b. 3 to 4 washes with 200 ul of 2M NaCl plus 1% (v/v) phosphoric acid. • c. 1 wash with water. • 7) Washed plates were dried in a 60° C. oven for between 1 to 2 hours. • 8) 70 ul of Microscint 20 scintillation fluid was added to each well of filter plates and after at least 30 minutes of incubation, radioactive counts were measured in a Perkinelmer microplate scintillation counter.

[2] = target: T2, recombinant human SYK360-635 (Homo sapiens, UniProt P43405); assay: Determination of IC50 of Spleen Tyrosine Kinase (SYK) inhibition, 33P ATP filtration assay; type: biochemical; conditions: SYK aa 360-635 0.5 nM; ATP 20 μM, peptide 5 μM, 0.1% BSA; read-out: SYK_ENZYME_FILTRATION/v1, BSA
T2 construct: made in house

SMILES	IC50 [1]	IC50 [2]
CC(NC(=O)c1c[nH]c2ncc(-c3nn(C)c4cc(Cl)ccc34)nc12)c1cccnc1 (stereo not shown) [Example I-247, 2-(6-Chloro-1-methyl-1H-indazol-3-yl)-5H-pyrrolo[2,3-b]pyrazine-7-carboxylic acid (1-pyridin-3-yl-ethyl)-amide]	66.7 nM	69.2 nM
Cn1nc(-c2cnc3[nH]cc(C(=O)NC4CCOC4)c3n2)c2ccc(Cl)cc21 (stereo not shown) [Example I-107, 2-(6-Chloro-1-methyl-1H-indazol-3-yl)-5H-pyrrolo[2,3-b]pyrazine-7-carboxylic acid (tetrahydro-furan-3-yl)-amide]	11.5 nM	20.8 nM
CC(NC(=O)c1c[nH]c2ncc(-c3nn(C)c4cc(F)ccc34)nc12)C(O)C1CCOCC1 (single isomer, unassigned) [Example I-203, 2-(6-Fluoro-1-methyl-1H-indazol-3-yl)-5H-pyrrolo[2,3-b]pyrazine-7-carboxylic acid [cis-2-hydroxy-1-methyl-2-(tetrahydro-pyran-4-yl)-ethyl]-amide]	263 nM	197 nM
CC(CC(C)(C)O)NC(=O)c1c[nH]c2ncc(-c3nn(C)c4cc(F)ccc34)nc12 (stereo not shown) [Example I-183, 2-(6-Fluoro-1-methyl-1H-indazol-3-yl)-5H-pyrrolo[2,3-b]pyrazine-7-carboxylic acid (3-hydroxy-1,3-dimethyl-butyl)-amide]	80 nM	161 nM
Cn1nc(-c2cnc3[nH]cc(C(=O)N[C@H]4CCCOC4)c3n2)c2ccc(Cl)cc21 [Example I-138, 2-(6-Chloro-1-methyl-1H-indazol-3-yl)-5H-pyrrolo[2,3-b]pyrazine-7-carboxylic acid (S)-tetrahydro-pyran-3-ylamide]	31.4 nM	21.9 nM
CC(CCCC(C)(C)O)NC(=O)c1c[nH]c2ncc(-c3nn(C)c4cc(Cl)ccc34)nc12 (stereo not shown) [Example I-163, 2-(6-Chloro-1-methyl-1H-indazol-3-yl)-5H-pyrrolo[2,3-b]pyrazine-7-carboxylic acid (5-hydroxy-1,5-dimethyl-hexyl)-amide]	80.7 nM	356 nM
Cc1cc(C(C)NC(=O)c2c[nH]c3ncc(-c4nn(C)c5cc(F)ccc45)nc23)no1 (stereo not shown) [Example I-54, 2-(6-Fluoro-1-methyl-1H-indazol-3-yl)-5H-pyrrolo[2,3-b]pyrazine-7-carboxylic acid [1-(5-methyl-isoxazol-3-yl)-ethyl]-amide]	14 nM	77.7 nM
COC[C@H](CCS(C)(=O)=O)NC(=O)c1c[nH]c2ncc(-c3nn(C)c4cc(F)ccc34)nc12 [Example I-192, 2-(6-Fluoro-1-methyl-1H-indazol-3-yl)-5H-pyrrolo[2,3-b]pyrazine-7-carboxylic acid ((S)-3-methanesulfonyl-1-methoxymethyl-propyl)-amide]	1.88 nM	135 nM
COC[C@@H](NC(=O)c1c[nH]c2ncc(-c3nn(C)c4cc(F)ccc34)nc12)[C@H](C)OC [Example I-189, 2-(6-Fluoro-1-methyl-1H-indazol-3-yl)-5H-pyrrolo[2,3-b]pyrazine-7-carboxylic acid ((1R,2S)-2-methoxy-1-methoxymethyl-propyl)-amide]	18.5 nM	248 nM
Cn1nc(-c2cnc3[nH]cc(C(=O)N[C@@H]4CCC[C@@H](O)C4)c3n2)c2ccc(Cl)cc21 (relative stereo) [Example I-148, 2-(6-Chloro-1-methyl-1H-indazol-3-yl)-5H-pyrrolo[2,3-b]pyrazine-7-carboxylic acid (trans-3-hydroxy-cyclohexyl)-amide]	55.5 nM	19.3 nM
CC(C)NC(=O)c1c[nH]c2ncc(-c3nn(C)c4cc(Cl)cc(F)c34)nc12 [Example I-127, 2-(6-Chloro-4-fluoro-1-methyl-1H-indazol-3-yl)-5H-pyrrolo[2,3-b]pyrazine-7-carboxylic acid isopropylamide]	11 nM	22.6 nM
COC[C@H](C)NC(=O)c1c[nH]c2ncc(-c3nn(C4COC4)c4cc(F)ccc34)nc12 [Example I-103, 2-(6-Fluoro-1-oxetan-3-yl-1H-indazol-3-yl)-5H-pyrrolo[2,3-b]pyrazine-7-carboxylic acid ((S)-2-methoxy-1-methyl-ethyl)-amide]	0.26 nM	43.8 nM
C[C@@H](O)[C@@H](NC(=O)c1c[nH]c2ncc(-c3nn(C)c4cc(F)ccc34)nc12)C(=O)N1CC(F)C1 [Example I-198, 2-(6-Fluoro-1-methyl-1H-indazol-3-yl)-5H-pyrrolo[2,3-b]pyrazine-7-carboxylic acid [(1R,2R)-1-(3-fluoro-azetidine-1-carbonyl)-2-hydroxy-propyl]-amide]	1.61 nM	120 nM
CC(NC(=O)c1c[nH]c2ncc(-c3nn(CCN4CCOCC4)c4cc(F)ccc34)nc12)c1ccncc1 (stereo not shown) [Example I-248, 2-[6-Fluoro-1-(2-morpholin-4-yl-ethyl)-1H-indazol-3-yl]-5H-pyrrolo[2,3-b]pyrazine-7-carboxylic acid (1-pyridin-4-yl-ethyl)-amide]	53.5 nM	514 nM

Next, values leading:

IC50 [1]	IC50 [2]	SMILES
19.4 nM	67.2 nM	C[C@@H](NC(=O)c1c[nH]c2ncc(-c3nn(C)c4cc(F)ccc34)nc12)C1COC1 [Example I-252, 2-(6-Fluoro-1-methyl-1H-indazol-3-yl)-5H-pyrrolo[2,3-b]pyrazine-7-carboxylic acid ((R)-1-oxetan-3-yl-ethyl)-amide]
22.9 nM	3.38 nM	CCC(C)(C)NC(=O)c1c[nH]c2ncc(-c3nn(C)c4cc(F)ccc34)nc12 [Example I-375, 2-(6-Fluoro-1-methyl-1H-indazol-3-yl)-5H-pyrrolo[2,3-b]pyrazine-7-carboxylic acid (1,1-dimethyl-propyl)-amide]
240 nM	377 nM	CC(C)NC(=O)c1c[nH]c2ncc(-c3nn(C)c4ccc(Oc5cccc(Cl)c5)cc34)nc12 [Example I-280, 2-[5-(3-Chloro-phenoxy)-1-methyl-1H-indazol-3-yl]-5H-pyrrolo[2,3-b]pyrazine-7-carboxylic acid isopropylamide]
78.7 nM	13.9 nM	CC(C)(C)NC(=O)c1c[nH]c2ncc(-c3nn(CCCN4CC(F)(F)C4)c4ccc(OC(F)F)cc34)nc12 [Example I-296, 2-{1-[3-(3,3-Difluoro-azetidin-1-yl)-propyl]-5-difluoromethoxy-1H-indazol-3-yl}-5H-pyrrolo[2,3-b]pyrazine-7-carboxylic acid tert-butylamide]
4.46 nM	10.9 nM	CC(C)NC(=O)c1c[nH]c2ncc(-c3nn(Cc4nccn4C)c4cc(Cl)ccc34)nc12 [Example I-311, 2-[6-Chloro-1-(1-methyl-1H-imidazol-2-ylmethyl)-1H-indazol-3-yl]-5H-pyrrolo[2,3-b]pyrazine-7-carboxylic acid isopropylamide]
18.6 nM	3230 nM	C[C@@H](NC(=O)c1c[nH]c2ncc(-c3nn(C)c4cc(F)ccc34)nc12)c1cccc(OC(F)(F)F)c1 [Example I-254, 2-(6-Fluoro-1-methyl-1H-indazol-3-yl)-5H-pyrrolo[2,3-b]pyrazine-7-carboxylic acid [(R)-1-(3-trifluoromethoxy-phenyl)-ethyl]-amide]
